According to PubChem BioAssay AID1259407 (Chemical Carcinogenesis Research Information System (CCRIS), 2018):
Calls of active or inactive are those of the source. The rule behind the calls is not given here.

Tested on: CCRIS mutagenicity, Ames/micronucleus/aberration tests
Assay: CCRIS mutagenicity studies
[1] = Test System: AMES SALMONELLA TYPHIMURIUM, Strain/Indicator: TA98, Metabolic Activation: NONE, Method: STANDARD PLATE
[2] = Test System: AMES SALMONELLA TYPHIMURIUM, Strain/Indicator: TA98, Metabolic Activation: RAT, LIVER, S-9, AROCLOR 1254, Method: STANDARD PLATE
[3] = Test System: AMES SALMONELLA TYPHIMURIUM, Strain/Indicator: TA100, Metabolic Activation: NONE, Method: STANDARD PLATE
[4] = Test System: AMES SALMONELLA TYPHIMURIUM, Strain/Indicator: TA100, Metabolic Activation: RAT, LIVER, S-9, AROCLOR 1254, Method: STANDARD PLATE
[5] = Test System: AMES SALMONELLA TYPHIMURIUM, Strain/Indicator: TA100, Metabolic Activation: NONE, Method: PREINCUBATION
[6] = Test System: AMES SALMONELLA TYPHIMURIUM, Strain/Indicator: TA1535, Metabolic Activation: NONE, Method: STANDARD PLATE
[7] = Test System: AMES SALMONELLA TYPHIMURIUM, Strain/Indicator: TA1535, Metabolic Activation: RAT, LIVER, S-9, AROCLOR 1254, Method: STANDARD PLATE
[8] = Test System: AMES SALMONELLA TYPHIMURIUM, Strain/Indicator: TA1537, Metabolic Activation: RAT, LIVER, S-9, AROCLOR 1254, Method: STANDARD PLATE
[9] = Test System: AMES SALMONELLA TYPHIMURIUM, Strain/Indicator: TA1538, Metabolic Activation: NONE, Method: STANDARD PLATE
[10] = Test System: AMES SALMONELLA TYPHIMURIUM, Strain/Indicator: TA1538, Metabolic Activation: RAT, LIVER, S-9, AROCLOR 1254, Method: STANDARD PLATE

Structure (SMILES): O=C(O)/C=C/C=C/CO
- mutagenic call (Test System: CHINESE HAMSTER V-79, Strain/Indicator: V-79 (HGPRT)/8-AZAGUANINE, Metabolic Activation: NONE): inactive; negative

Structure (SMILES): CCc1c2ccccc2c(CC)c2c1ccc1ccccc12
- mutagenic call (Test System: AMES SALMONELLA TYPHIMURIUM, Strain/Indicator: TA98, Method: STANDARD PLATE): inactive; negative
- mutagenic call (Test System: AMES SALMONELLA TYPHIMURIUM, Strain/Indicator: TA100, Metabolic Activation: RAT, LIVER, S-9, PHENOBARBITAL, Method: STANDARD PLATE): inactive; negative
- mutagenic call (Test System: AMES SALMONELLA TYPHIMURIUM, Strain/Indicator: TA100, Method: STANDARD PLATE): inactive; negative

Structure (SMILES): O=C(CO)N(O)c1ccc(Cl)cc1
- mutagenic call [1]: inactive; negative
- mutagenic call [2]: inactive; negative
- mutagenic call [3]: inactive; negative
- mutagenic call [4]: inactive; negative

Structure (SMILES): Cc1cc2c(c3ccc4ccccc4c13)[C@H]1O[C@H]1[C@@H](O)[C@@H]2O
- mutagenic call [5]: inactive; negative

Structure (SMILES): CCOc1ccc(NC(C)=O)cc1N
- mutagenic call (Test System: AMES SALMONELLA TYPHIMURIUM, Strain/Indicator: TA98, Metabolic Activation: HAMSTER, LIVER, S-9, AROCLOR 1254, Method: STANDARD PLATE): active; positive
- mutagenic call (Test System: AMES SALMONELLA TYPHIMURIUM, Strain/Indicator: TA98, Metabolic Activation: HAMSTER, LIVER, S-9, Method: STANDARD PLATE): active; positive
- mutagenic call (Test System: AMES SALMONELLA TYPHIMURIUM, Strain/Indicator: TA98, Metabolic Activation: MOUSE, LIVER, S-9, AROCLOR 1254, Method: STANDARD PLATE): active; positive
- mutagenic call (Test System: AMES SALMONELLA TYPHIMURIUM, Strain/Indicator: TA98, Metabolic Activation: MOUSE, LIVER, S-9, Method: STANDARD PLATE): active; positive
- mutagenic call [2]: active; positive
- mutagenic call (Test System: AMES SALMONELLA TYPHIMURIUM, Strain/Indicator: TA98, Metabolic Activation: RAT, LIVER, S-9, Method: STANDARD PLATE): active; positive
- mutagenic call (Test System: AMES SALMONELLA TYPHIMURIUM, Strain/Indicator: TA100, Metabolic Activation: HAMSTER, LIVER, S-9, AROCLOR 1254, Method: STANDARD PLATE): active; positive
- mutagenic call (Test System: AMES SALMONELLA TYPHIMURIUM, Strain/Indicator: TA100, Metabolic Activation: MOUSE, LIVER, S-9, AROCLOR 1254, Method: STANDARD PLATE): inactive; negative
- mutagenic call (Test System: AMES SALMONELLA TYPHIMURIUM, Strain/Indicator: TA100, Metabolic Activation: MOUSE, LIVER, S-9, Method: STANDARD PLATE): inactive; negative
- mutagenic call [3]: inactive; negative
- mutagenic call (Test System: AMES SALMONELLA TYPHIMURIUM, Strain/Indicator: TA100, Metabolic Activation: RAT, LIVER, S-9, Method: STANDARD PLATE): inactive; negative
- mutagenic call (Test System: AMES SALMONELLA TYPHIMURIUM, Strain/Indicator: TA1535, Metabolic Activation: HAMSTER, LIVER, S-9, AROCLOR 1254, Method: STANDARD PLATE): inactive; negative
- mutagenic call (Test System: AMES SALMONELLA TYPHIMURIUM, Strain/Indicator: TA1535, Metabolic Activation: HAMSTER, LIVER, S-9, Method: STANDARD PLATE): inactive; negative
- mutagenic call (Test System: AMES SALMONELLA TYPHIMURIUM, Strain/Indicator: TA1535, Metabolic Activation: MOUSE, LIVER, S-9, AROCLOR 1254, Method: STANDARD PLATE): inactive; negative
- mutagenic call (Test System: AMES SALMONELLA TYPHIMURIUM, Strain/Indicator: TA1535, Metabolic Activation: MOUSE, LIVER, S-9, Method: STANDARD PLATE): inactive; negative
- mutagenic call [6]: inactive; negative
- mutagenic call [7]: inactive; negative
- mutagenic call (Test System: AMES SALMONELLA TYPHIMURIUM, Strain/Indicator: TA1535, Metabolic Activation: RAT, LIVER, S-9, Method: STANDARD PLATE): inactive; negative
- mutagenic call (Test System: AMES SALMONELLA TYPHIMURIUM, Strain/Indicator: TA1537, Metabolic Activation: HAMSTER, LIVER, S-9, AROCLOR 1254, Method: STANDARD PLATE): active; positive
- mutagenic call (Test System: AMES SALMONELLA TYPHIMURIUM, Strain/Indicator: TA1537, Metabolic Activation: HAMSTER, LIVER, S-9, Method: STANDARD PLATE): active; positive
- mutagenic call (Test System: AMES SALMONELLA TYPHIMURIUM, Strain/Indicator: TA1537, Metabolic Activation: MOUSE, LIVER, S-9, AROCLOR 1254, Method: STANDARD PLATE): active; positive
- mutagenic call [8]: active; positive
- mutagenic call (Test System: AMES SALMONELLA TYPHIMURIUM, Strain/Indicator: TA1538, Metabolic Activation: HAMSTER, LIVER, S-9, AROCLOR 1254, Method: STANDARD PLATE): active; positive
- mutagenic call (Test System: AMES SALMONELLA TYPHIMURIUM, Strain/Indicator: TA1538, Metabolic Activation: HAMSTER, LIVER, S-9, Method: STANDARD PLATE): active; positive
- mutagenic call (Test System: AMES SALMONELLA TYPHIMURIUM, Strain/Indicator: TA1538, Metabolic Activation: MOUSE, LIVER, S-9, AROCLOR 1254, Method: STANDARD PLATE): active; positive
- mutagenic call [9]: inactive; negative
- mutagenic call [10]: active; positive
- mutagenic call (Test System: AMES SALMONELLA TYPHIMURIUM, Strain/Indicator: TA1538, Metabolic Activation: RAT, LIVER, S-9, Method: STANDARD PLATE): active; positive
- mutagenic call (Test System: E. COLI, Strain/Indicator: WP2 UVRA, Metabolic Activation: HAMSTER, LIVER, S-9, AROCLOR 1254, Method: STANDARD PLATE): inactive; negative
- mutagenic call (Test System: E. COLI, Strain/Indicator: WP2 UVRA, Metabolic Activation: HAMSTER, LIVER, S-9, Method: STANDARD PLATE): inactive; negative
- mutagenic call (Test System: E. COLI, Strain/Indicator: WP2 UVRA, Metabolic Activation: MOUSE, LIVER, S-9, AROCLOR 1254, Method: STANDARD PLATE): inactive; negative
- mutagenic call (Test System: E. COLI, Strain/Indicator: WP2 UVRA, Metabolic Activation: MOUSE, LIVER, S-9, Method: STANDARD PLATE): inactive; negative
- mutagenic call (Test System: E. COLI, Strain/Indicator: WP2 UVRA, Metabolic Activation: NONE, Method: STANDARD PLATE): inactive; negative
- mutagenic call (Test System: E. COLI, Strain/Indicator: WP2 UVRA, Metabolic Activation: RAT, LIVER, S-9, Method: STANDARD PLATE): inactive; negative

Structure (SMILES): Cc1c[nH]c2ccccc12
- mutagenic call [5]: inactive; negative
- mutagenic call (Test System: AMES SALMONELLA TYPHIMURIUM, Strain/Indicator: TA100, Metabolic Activation: RAT LIVER S-9, PHENOBARBITOL/BETA-NAPHTHOFLAVONE, Method: PREINCUBATION): inactive; negative

Structure (SMILES): CC(=C/C=C/C(C)=C/C=C/C=C(C)/C=C/C=C(C)/C=C/C(=O)O)/C=C/C(=O)O
- mutagenic call (Test System: AMES SALMONELLA TYPHIMURIUM, Strain/Indicator: TA97, Metabolic Activation: NONE, Method: PREINCUBATION): inactive; negative
- mutagenic call (Test System: AMES SALMONELLA TYPHIMURIUM, Strain/Indicator: TA97, Metabolic Activation: S-9, Method: PREINCUBATION): inactive; negative
- mutagenic call (Test System: AMES SALMONELLA TYPHIMURIUM, Strain/Indicator: TA102, Metabolic Activation: NONE, Method: PREINCUBATION): inactive; negative
- mutagenic call (Test System: AMES SALMONELLA TYPHIMURIUM, Strain/Indicator: TA102, Metabolic Activation: S-9, Method: PREINCUBATION): inactive; negative

Structure (SMILES): CCCCCC(=O)O[C@]1(C(C)=O)CC[C@H]2[C@@H]3CCC4=CC(=O)CC[C@@H]4[C@H]3CC[C@@]21C
- mutagenic call [1]: inactive; negative
- mutagenic call [2]: inactive; negative
- mutagenic call [3]: inactive; negative
- mutagenic call [4]: inactive; negative
- mutagenic call [6]: inactive; negative
- mutagenic call [7]: inactive; negative
- mutagenic call (Test System: AMES SALMONELLA TYPHIMURIUM, Strain/Indicator: TA1537, Metabolic Activation: NONE, Method: STANDARD PLATE): inactive; negative
- mutagenic call [8]: inactive; negative
- mutagenic call [9]: inactive; negative
- mutagenic call [10]: inactive; negative
